Measurements published in patent US8247447B2, “Use of derivatives of 4-hydroxyphenoxy acetic acid” (Cognis IP Management GmbH, priority 2007, dated 2012).

Test system: Melanocytes (B16 cell line)
Test: Melanogenesis inhibition assay (melanin level by optical density at 475 nm; viable cells by cellular proteins, Bradford's method)
Type: cell-based
Settings: for Protein level (rate of cellular proteins) / Melanin level (rate of melanin): B16 melanocytes, 3 days incubation; for Protein level (rate of cellular proteins): Bradford's method; for Melanin level (rate of melanin): OD 475 nm
Protocol: Melanocytes (B16 cell line) were inoculated in standard medium of cell culture with foetal calf serum (FCS). After an incubation of 3 day at 37° C. and CO2=5%, growth medium was exchanged for standard medium with a range of concentrations for each compound to be tested and a control without ingredient. After an incubation of 3 days, the level of melanin was measured by recording the optical density at 475 nm. After washing the cells by a balanced salt, and homogenisation in a solution of 0.1 M NaOH, the number of viable cells was determined by evaluation of the level of cellular proteins (Bradford's method). The results are expressed in % against control (cell culture medium without compound) as a mean on 1 to 3 assays, each in triplicate.

CC(Oc1ccc(O)cc1)C(=O)O (racemic) [2-(4-hydroxyphenoxy)-propionic acid]
Protein level (rate of cellular proteins) (dose 0.00003 % (w/v)): 103 %/control
Melanin level (rate of melanin) (dose 0.00003 % (w/v)): 84 %/control
Protein level (rate of cellular proteins) (dose 0.0001 % (w/v)): 97 %/control
Melanin level (rate of melanin) (dose 0.0001 % (w/v)): 57 %/control
Protein level (rate of cellular proteins) (dose 0.0003 % (w/v)): 107 %/control
Melanin level (rate of melanin) (dose 0.0003 % (w/v)): 52 %/control
Protein level (rate of cellular proteins) (dose 0.001 % (w/v)): 104 %/control
Melanin level (rate of melanin) (dose 0.001 % (w/v)): 39 %/control
Protein level (rate of cellular proteins) (dose 0.01 % (w/v)): 98 %/control
Melanin level (rate of melanin) (dose 0.01 % (w/v)): 37 %/control
cell toxicity (melanocytes, doses up to 0.01%): without any cell toxicity
rate of melanin synthesis in melanocytes (result in words, over the tested dose range): decreased in a dose dependant manner
